For one series, the system named is Jeko-1. Put plainly: Cytotoxicity study (MTS), 5 days. Particulars: Homo sapiens, MCL. Format: cell-based. Here is the method:
(§1) EOL-1, GRANTA-519, Jeko-1, Jurkat, Molm-13, NOMO-1, SKM-1, and SU-DHL-6 were obtained from Leibniz-Institut DSMZ. HL-60, KG-1, Mino, MV4-11, Raji, and THP-1 were obtained from ATCC. HEL92.1.7 were obtained from the European Collection of Authenticated Cell Cultures and Ramos cells were a gift from Dr. M. Andreeff (MD Anderson Cancer Center, Houston, Tex.). All cells were cultured in complete media as per the manufacturer's instructions. Early passage cells were collected and frozen within 1 month of receipt from the manufacturer. All experiments were performed on early passage cells within 6 weeks of thawing. MycoScope Mycoplasma Detection Kit (Genlantis catalog #MY01050) was used to screen for potential contamination every 6 months. Peripheral blood mononuclear cells (PBMC) were isolated from fresh healthy donor blood using Ficoll-Paque PLUS (GE Healthcare, catalog #17-1440-02). For synthesis of COMPOUND I free base, 10-phenanthroline-5,6-dione (1.2 equivalents), acetic acid (22 volumes), 2-methyl-5-fluoroindole-3-carboxaldehyde (1.0 equivalents), and ammonium acetate (15 equivalents) were reacted under medium agitation while heated at 95±5° C. for 3 to 7 hours. The reaction was cooled to between 20° C. and 25° C., filtered, rinsed with acetic acid and ethanol, and dried with N2 purge, followed by a wash with 2:1 ethanol:water at 65° C. for 4 hours, cooling to 20° C. to 25° C., filtration, rinsing with 2:1 ethanol:water and EtOAc, and then dried with N2 purge. The purity by HPLC was 99.5%, and the structural identity was confirmed by FT-IR, ^1HNMR, ^13C NMR, and LC/MS. For Fe(COMPOUND I)3 synthesis, five molar equivalents of ferrous ion FeSO4 in water was added to COMPOUND I dissolved in ethanol. The deep red precipitate produced, Fe(COMPOUND I)3, was collected and dissolved in DMSO and characterized by HPLC and mass spectrometry as >95% pure. CX-5461 (7) was purchased from MedChem Express (catalog #HY-13323).
(§2) Cells were plated and treated with vehicle DMSO or COMPOUND I (10 concentrations) in 96-well plates for 5 days at 37° C. and 5% CO2. Cell viability was measured using CellTiter 96 AQueous one solution (MTS) cell proliferation assay (Promega, catalog #G3581), and IC50 values were calculated using GraphPad Prism 7 software.

The subject of a further series is SKM-1. Put plainly: Cytotoxicity study (MTS), 5 days. The following applies: Homo sapiens, AML. Type of series: cell-based. Here is the method: as §1, §2
The test system of a further series is THP1. Put plainly: Cytotoxicity study (MTS), 5 days. Type of series: cell-based. The following applies: Homo sapiens, THP-1; AML. The procedure:
as §1, §2

In series [1] the test system is gene expression in MV4-11 cells. The series is described as follows: RNA sequencing differential expression analysis. Type of series: cell-based. The procedure:
Treated MV4-11 cells were subjected to total RNA extraction (as for qRT-PCR analysis) and sequenced at the UCSD genomics core facility. RNA was processed using Illumina TruSeq and single end sequenced for 50-bp reads on the Illumina HiSeq4000. Data were analyzed by the McWeeny lab at Oregon Health and Science University (Portland, Oreg.). FASTQ files were assessed for read base distribution and sequence representation using FASTQC http://www.bioinformatics.babraham.ac.uk/projects/fastqc/. Reads were aligned to HG37 using SubRead v1.5.0-pl keeping uniquely mapped reads. Differential expression genes with less than 50 reads (across all 4 samples) were discarded. Raw data and processed files are available on GEO (https://www.ncbi.nlm.nih.gov/geo/query/acc.cgi?acc=GSE111949) accession number GSE111949.
To gain further insight into the pathways exploited by COMPOUND I to cause cell-cycle arrest and apoptosis, differential expression analysis was performed at both the mRNA and protein levels. MV4-11 cells were treated with either vehicle or 500 nmol/L COMPOUND I for 6 hours, and then gene expression was analyzed by RNA-seq. […] The RNA-seq analysis detected a 2-fold increase in KLF4 and a 4.5-fold increase in CDKN1A expression, which is validated by the qRT-PCR data with MV4-11 cells. The differentially regulated genes were analyzed for enriched pathways or GO (Gene Ontology) terms (FIG. 18A) utilizing the Broad Molecular Signatures database (http://software.broadinstitute.org/gsea/msigdb/index.jsp). As expected, apoptotic and cell-cycle pathways were enriched in the differentially expressed gene set. Unexpectedly, gene expression profiles after COMPOUND I treatment were also enriched in the DNA damage response (DDR) and endoplasmic reticulum (ER) stress/unfolded protein response pathways. […] Gene expression changes detected in MV4-11 cells raised the possibility that COMPOUND I could cause apoptosis by inducing DNA damage and activating cellular stress pathways, and/or by inhibition of expression of the MYC oncogene.

The conditions of series [2]: patients with solid tumors, up to maximum tolerated dose; cited from earlier work.

Entries after “also recorded” stand apart in the source; their conditions may differ.

By IC50 is commonly meant the concentration at which inhibition is half-maximal. Read a low IC50 as greater potency in that assay. In the series on Jeko-1, `Cc1[nH]c2ccc(F)cc2c1-c1nc2c3cccnc3c3ncccc3c2[nH]1` [COMPOUND I, 2-(5-fluoro-2-methyl-1H-indol-3-yl)-1H-imidazo[4,5-f][1,10]phenanthroline] gave an IC50 of 0.057 µM. This compound also yielded an IC50 in the series with SKM-1 of 0.48 µM. The same compound gave an IC50 in the series on THP1 of 0.34 µM. For the same compound, in series [1] (500 nmol/L, 6 hours), the “genes differentially regulated (>2-fold change and P<0.05)” value is on record as 1,643 genes; the genes downregulated is on record as 1,227 genes; the genes upregulated was found to be 416 genes; the “increase in BBC3” value came out at 3.95 fold. In addition, in series [1] (500 nmol/L, 6 hours), the “increase in CDKN1A expression” value is 4.5 fold, the “increase in KLF4 expression” value came out at 2 fold and the “increase in PMAIP1” value is recorded as 1.38 fold. For the same compound, the KIT expression entry in series [1] (6-hour treatment) is “decreased”. Also, the MYC expression result in series [1] (6 hours) is on record as “downregulated”. The myelosuppression result in series [2] is reported as “did not produce myelosuppression; also recorded: does not produce myelosuppression”.

The values above are taken from patent publication US11149047B2, “Aryl imidazoles for treatment of cancer” (Aptose Biosciences Inc., priority 2017, dated 2021).
